According to ChEMBL document CHEMBL5329212, “In situ click chemistry-based discovery of 1,2,3-triazole-derived diarylpyrimidines as novel HIV-1 NNRTIs by exploiting the tolerant region I in binding pocket” (Bioorg Med Chem, 2023):

Experiments:
[1] = molecular target: Human immunodeficiency virus type 1 reverse transcriptase (Human immunodeficiency virus 1) (UniProt Q72547); test: Inhibition of HIV-1 reverse transcriptase at 0.267 uM incubated for 1 hrs in presence of biotin-labeled dNTPs by ELISA assay relative to control
[2] = molecular target: Human immunodeficiency virus type 1 reverse transcriptase (Human immunodeficiency virus 1, UniProt Q72547); test: Inhibition of HIV-1 reverse transcriptase incubated for 1 hrs in presence of biotin-labeled dNTPs by ELISA assay
[3] = tested on: Human immunodeficiency virus 1; test: Antiviral activity against wild type HIV-1 IIIB infected in human MT4 cells assessed as protection against virus-induced cytopathic effect measured after 5 days by MTT assay; type: functional, organism-based; settings: Human immunodeficiency virus 1, IIIB, MT4, 120 h
[4] = tested on: Human immunodeficiency virus 1; test: Antiviral activity against HIV-1 harboring RT L100I mutant infected in human MT4 cells assessed as protection against virus-induced cytopathic effect measured after 5 days by MTT assay; type: functional, organism-based; settings: Human immunodeficiency virus 1, MT4, 120 h
[5] = tested on: Human immunodeficiency virus 1; test: Antiviral activity against HIV-1 harboring RT K103N mutant infected in human MT4 cells assessed as protection against virus-induced cytopathic effect measured after 5 days by MTT assay; type: functional, organism-based; settings: Human immunodeficiency virus 1, MT4, 120 h
[6] = tested on: Human immunodeficiency virus 1; test: Antiviral activity against HIV-1 harboring RT Y181C mutant infected in human MT4 cells assessed as protection against virus-induced cytopathic effect measured after 5 days by MTT assay; type: functional, organism-based; settings: Human immunodeficiency virus 1, MT4, 120 h
[7] = tested on: Human immunodeficiency virus 1; test: Antiviral activity against HIV-1 harboring RT Y188L mutant infected in human MT4 cells assessed as protection against virus-induced cytopathic effect measured after 5 days by MTT assay; type: functional, organism-based; settings: Human immunodeficiency virus 1, MT4, 120 h
[8] = tested on: Human immunodeficiency virus 1; test: Antiviral activity against HIV-1 harboring RT E138K mutant infected in human MT4 cells assessed as protection against virus-induced cytopathic effect measured after 5 days by MTT assay; type: functional, organism-based; settings: Human immunodeficiency virus 1, MT4, 120 h
[9] = tested on: Human immunodeficiency virus 1; test: Antiviral activity against HIV-1 harboring RT F227L/V106A double mutant infected in human MT4 cells assessed as protection against virus-induced cytopathic effect measured after 5 days by MTT assay; type: functional, organism-based; settings: Human immunodeficiency virus 1, MT4, 120 h
[10] = tested on: Human immunodeficiency virus 1; test: Antiviral activity against HIV-1 harboring RT RES056 mutant infected in human MT4 cells assessed as protection against virus-induced cytopathic effect measured after 5 days by MTT assay; type: functional, organism-based; settings: Human immunodeficiency virus 1, MT4, 120 h
[11] = Cytotoxicity against human MT4 cells assessed as reduction in cell viability measured after 5 days by MTT assay; type: toxicity, cell-based; settings: time 5 day

`Cc1cc(C#N)cc(C)c1Oc1nc(Nc2ccc(-c3cn(CC(=O)Nc4ccc(C(F)(F)F)cc4)nn3)cc2)nc2ccsc12` gave an inhibition [1] of 43.8%, an IC50 [2] of 2730 nM and an EC50 [3] of 2060 nM. For the same compound, the EC50 [4] was 2500 nM, the EC50 [5] was 2830 nM and the EC50 [6] was 5500 nM. It also gave an EC50 [7] of 17500 nM, an EC50 [8] of 6680 nM and an EC50 [9] of 18700 nM. For the same compound, the EC50 [10] was 23400 nM and the CC50 at 120 h [11] was > 195000 nM.
`COc1cccc(Cn2cc(-c3ccc(Nc4nc(Oc5c(C)cc(C#N)cc5C)c5sccc5n4)cc3)nn2)c1` gave an inhibition [1] of 0.4%.
`CCOC(=O)c1ccc(Cn2cc(-c3ccc(Nc4nc(Oc5c(C)cc(C#N)cc5C)c5sccc5n4)cc3)nn2)cc1` showed an inhibition [1] of 60%, an IC50 [2] of 430 nM and an EC50 [3] of 540 nM. For the same compound, the EC50 [4] was 34800 nM, the EC50 [5] was 860 nM and the EC50 [6] was 120000 nM. The EC50 [7] was > 208000 nM, the EC50 [8] was 780 nM and the EC50 [9] was > 208000 nM. The EC50 [10] was > 208000 nM and the CC50 at 120 h [11] was > 208000 nM.
For `Cc1cc(C#N)cc(C)c1Oc1nc(Nc2ccc(-c3cn(-c4cc5ccccc5s4)nn3)cc2)nc2ccsc12`, the inhibition [1] was 0.1%.
Work on `Cc1cc(C#N)cc(C)c1Oc1nc(Nc2ccc(-c3cn(-c4ccc(C(C)(C)C)cc4)nn3)cc2)nc2ccsc12` yielded an inhibition [1] of 23.9%.
For `Cc1cc(C#N)cc(C)c1Oc1nc(Nc2ccc(-c3cn(Cc4cccc5ccccc45)nn3)cc2)nc2ccsc12`, the inhibition [1] was 35.9%.
In the case of `Cc1cc(C#N)cc(C)c1Oc1nc(Nc2ccc(-c3cn(Cc4ccccc4Cl)nn3)cc2)nc2ccsc12`, the inhibition [1] is reported as 23.1%.
Compound `Cc1cc(C#N)cc(C)c1Oc1nc(Nc2ccc(-c3cn(Cc4ccccc4C#N)nn3)cc2)nc2ccsc12` has an inhibition [1] of 0.2%.
`Cc1cc(C#N)cc(C)c1Oc1nc(Nc2ccc(-c3cn(CC(=O)N4CCCC4)nn3)cc2)nc2ccsc12` gave an inhibition [1] of 12.8%.
`COC(=O)CCCn1cc(-c2ccc(Nc3nc(Oc4c(C)cc(C#N)cc4C)c4sccc4n3)cc2)nn1` gave an inhibition [1] of 35.3%.
`Cc1ccc(Cn2cc(-c3ccc(Nc4nc(Oc5c(C)cc(C#N)cc5C)c5sccc5n4)cc3)nn2)cc1` showed an inhibition [1] of 3.5%.
Compound `Cc1cn([C@H]2C[C@H](N=[N+]=[N-])[C@@H](CO)O2)c(=O)[nH]c1=O` [ZIDOVUDINE] has an EC50 [3] of 30 nM, an EC50 [5] of 30 nM and an EC50 [6] of 30 nM. The EC50 [7] was 30 nM, the EC50 [8] was 40 nM and the EC50 [9] was 20 nM. The EC50 [10] was 30 nM and the CC50 at 120 h [11] was > 749000 nM.
`Cc1cc(C#N)cc(C)c1Oc1nc(Nc2ccc(-c3cn(CCN4C(=O)c5ccccc5C4=O)nn3)cc2)nc2ccsc12` showed an inhibition [1] of 46.2%, an IC50 [2] of 3360 nM and an EC50 [3] of 1850 nM. The EC50 [4] was 3200 nM, the EC50 [5] was 2110 nM and the EC50 [6] was 45700 nM. For the same compound, the EC50 [7] was ≥ 157000 nM, the EC50 [8] was 13800 nM and the EC50 [9] was 124000 nM. The EC50 [10] was > 204000 nM and the CC50 at 120 h [11] was > 204000 nM.
With `COC(=O)c1cccc(-n2cc(-c3ccc(Nc4nc(Oc5c(C)cc(C#N)cc5C)c5sccc5n4)cc3)nn2)c1` the inhibition [1] was 42.4%, the IC50 [2] was 650 nM and the EC50 [3] was 1260 nM. It also gave an EC50 [4] of 7400 nM, an EC50 [5] of 1750 nM and an EC50 [6] of 24200 nM. It also gave an EC50 [7] of 58400 nM, an EC50 [8] of 4980 nM and an EC50 [9] of 23300 nM. The EC50 [10] was ≥ 154000 nM and the CC50 at 120 h [11] was > 218000 nM.
Work on `Cc1cc(C#N)cc(C)c1Oc1nc(Nc2ccc(-c3cn(Cc4ccc([N+](=O)[O-])cc4)nn3)cc2)nc2ccsc12` yielded an inhibition [1] of 1.6%.
`Cc1cc(C#N)cc(C)c1Oc1nc(Nc2ccc(-c3cn(CSc4ccccc4)nn3)cc2)nc2ccsc12` showed an inhibition [1] of 31.9%.
Work on `Cc1cc(C#N)cc(C)c1Oc1nc(Nc2ccc(-c3cn(-c4ccc(C(N)=O)cc4)nn3)cc2)nc2ccsc12` yielded an inhibition [1] of 66.9%, an IC50 [2] of 800 nM and an EC50 [3] of 150 nM. The EC50 [4] was > 164000 nM, the EC50 [5] was 250 nM and the EC50 [6] was > 164000 nM. For the same compound, the EC50 [7] was > 164000 nM, the EC50 [8] was 920 nM and the EC50 [9] was > 164000 nM. The EC50 [10] was > 164000 nM and the CC50 at 120 h [11] was 164000 nM.
`O=C1Nc2ccc(Cl)cc2[C@@](C#CC2CC2)(C(F)(F)F)O1` [EFAVIRENZ] gave an EC50 [4] of 80 nM, an EC50 [5] of 130 nM and an EC50 [6] of 8 nM. The EC50 [7] was 430 nM, the EC50 [9] was 500 nM and the EC50 [10] was 430 nM. The CC50 at 120 h [11] was > 635000 nM.
`Cc1cc(C#N)cc(C)c1Oc1nc(Nc2ccc(-c3cn(-c4ccc(CO)cc4)nn3)cc2)nc2ccsc12` gave an inhibition [1] of 34.7%.
`Cc1cc(C#N)cc(C)c1Oc1nc(Nc2ccc(-c3cn(Cc4ccc(C#N)cc4)nn3)cc2)nc2ccsc12` gave an inhibition [1] of 36.9%.
`Cc1cc(C#N)cc(C)c1Oc1nc(Nc2ccc(-c3cn(Cc4ccc5ccccc5c4)nn3)cc2)nc2ccsc12` gave an inhibition [1] of 1.5%.
Compound `COC(=O)Cn1cc(-c2ccc(Nc3nc(Oc4c(C)cc(C#N)cc4C)c4sccc4n3)cc2)nn1` has an inhibition [1] of 35.7%.
`COc1ccc(-n2cc(-c3ccc(Nc4nc(Oc5c(C)cc(C#N)cc5C)c5sccc5n4)cc3)nn2)cc1` gave an inhibition [1] of 28%.
`Cc1cc(C#N)cc(C)c1Oc1nc(Nc2ccc(-c3cn(Cc4ccc(S(N)(=O)=O)cc4)nn3)cc2)nc2ccsc12` showed an inhibition [1] of 46.3%, an IC50 [2] of 190 nM and an EC50 [3] of 30 nM. The EC50 [4] was 990 nM, the EC50 [5] was 40 nM and the EC50 [6] was 2630 nM. For the same compound, the EC50 [7] was 3210 nM, the EC50 [8] was 50 nM and the EC50 [9] was 3610 nM. For the same compound, the EC50 [10] was > 205000 nM and the CC50 at 120 h [11] was > 205000 nM.
